From article PMC7845594, “Novel Immune Modulators Enhance Caenorhabditis elegans Resistance to Multiple Pathogens” (mSphere, 2021)
Values joined by “and” are separate entries in the source; they are usually repeats but may differ in a detail not shown here. Equal values may be shown once.

Key:
Assay type in all cases: in vivo, Caenorhabditis elegans
[1] = system: glp-4(bn2) worms exposed to E. faecalis strain OG1RF; assay: E. faecalis infection assay (liquid); details: for E. faecalis EC: glp-4(bn2) worms, 80 h, ± 95% confidence interval
Method: Enterococcus faecalis and Staphylococcus aureus are Gram-positive bacterial species frequently responsible for nosocomial infections ([24], [25]). These bacterial species readily infect C. elegans and liquid-based pathogenesis models have been developed for each ([26][–][28]). Sterile, young adult glp-4(bn2) worms were incubated with either E. faecalis or S. aureus and various concentrations of the five compounds. […] Importantly, P. aeruginosa, E. faecalis, and S. aureus use very different mechanisms to kill C. elegans (pyoverdine-mediated mitochondrial damage, gelatinase-mediated damage to the colonized intestine, and multi-toxin-mediated intestinal effacement and damage, respectively) ([29][–][33]). The ability of these compounds to rescue against multiple pathogens that utilize a diverse set of virulence factors and mechanisms of pathogenesis further supports the idea that at least a portion of these compounds’ activity is mediated by stimulating innate immunity.
FIG 2 A subset of LK molecules rescue against E. faecalis and S. aureus. […] Compounds were serially diluted 2-fold, and young adult glp-4(bn2) worms were incubated with the pathogen for 80 h (E. faecalis) or 96 h (S. aureus). The concentrations shown are based on the mean value for at least three replicates. (B and C) Percentages of dead C. elegans after exposure to E. faecalis (B) or S. aureus (C). A representative biological replicate is shown. Each condition included at least six wells per replicate, each well contained approximately 20 worms. Three biological replicates were performed. *, P < 0.05; **, P < 0.01; ***, P < 0.001. P values were calculated using Student’s t test. Error bars represent the standard error of the mean.
The E. faecalis infection assay was performed as previously described ([27]). A single colony was used to inoculate a 5 ml of BHI liquid culture. After 16 to 24 h, 400 µl of this culture was spread on a BHI agar plate and placed at 37°C for 24 h. Next, 384-well plates were made containing 10% BHI, and E. faecalis was removed from the plate by scraping and resuspended in S Basal medium to a final OD of 0.03. Compounds at the desired concentrations or DMSO (final concentration, 1%) were then added to each well. After 3 days, the worms were transferred to new plates using a 0.05% Tween solution to prevent background fluorescence from E. faecalis biofilm. Subsequent washing, staining, imaging, and image analysis was performed identically to Pseudomonas liquid killing. EC values were defined as the minimum concentration that provided statistically significant rescue. At least three biological replicates were performed.

[2] = system: glp-4(bn2) worms reared on RNAi, exposed to P. aeruginosa PA14; assay: P. aeruginosa liquid killing assay after RNAi knockdown; details: for Rescue in liquid killing after mdt-15(RNAi): P. aeruginosa PA14, LK56 at 32 µM; for Rescue in liquid killing after RNAi of a panel of phosphatases, kinases, transcription factors and most upregulated genes: Fig S4A
From the text: Based on the presence of effectors for well-known innate immune pathways in the transcriptional profiles of C. elegans exposed to LK molecules, we predicted that the compounds were acting through one or more of these pathways, despite the low levels of reporter activation. To test this, RNAi was used to knock down daf-16/FOXO, elt-2/GATA, pmk-1/p38 MAPK, atf-7/ATF7, or skn-1/Nrf2. Sterile, young adult glp-4(bn2) worms were then exposed to P. aeruginosa under liquid killing conditions in the presence of either DMSO or one of the immunostimulatory compounds.
RNAi conditions measured at different time points are represented by different graphs within the same panel. […] At least six wells, containing 20 worms each, were used per biological replicate to determine survival for each condition, and averages from at least three biological replicates are shown. *, P < 0.05; **, P < 0.01; ***, P < 0.001. P values were calculated using Student’s t test. Error bars represent standard error of the mean.
(A) Sterile, young adult glp-4(bn2) worms were reared on RNAi targeting irid-28, F38B2.4, T24B8.5, mex-5, Y105C5B.15, comt-4, or empty vector and then exposed to P. aeruginosa in the liquid killing assay. (B) Sterile, young adult glp-4(bn2) worms were reared on RNAi targeting met-2, osm-8, rde-4, oga-1, daf-2, lin-35, glp-1, dpy-10, or dpy-9 and then exposed to P. aeruginosa in the liquid killing assay. These genes were chosen using WormEXP with the criterion that gene expression after mutation would be similar (in terms of upregulation and downregulation) to exposure to LK56. Endpoints were collected at different times (to allow DMSO-treated worms to be approximately 30 to 50% dead). Assays collected at different time points are shown on different graphs. […] For each experiment, three biological replicates were performed, with each replicate comprised of six wells with 20 worms/well. Error bars represent standard error of the mean. *, P < 0.05; **, P < 0.01; ***, P < 0.001. P values were calculated using Student’s t test. Download FIG S4, PDF file, 0.2 MB.
Due to its strong rescue and unique transcriptional profile, we also created a panel of genes to test for LK56. […] This effect was specific, since mdt-15(RNAi) had no effect on the ability of LK35 or LK38 to rescue in this assay (Fig. 7B). Importantly, MDT-15 was also required for LK56-mediated rescue in E. faecalis and S. aureus pathogenesis assays (Fig. 7C).
FIG 7 Rescue from pathogens by LK56 requires […]. (A and B) Young adult glp-4(bn2) worms reared on vector or mdt-15(RNAi) were incubated with P. aeruginosa strain PA14 in the liquid killing assay with or without LK56 at 32 µM. (B) Young adult glp-4(bn2) worms reared on vector or mdt-15(RNAi) were exposed to P. aeruginosa PA14 in the liquid killing assay in the presence of LK35, LK38, or DMSO. (C) Young adult glp-4(bn2) worms reared on vector or mdt-15(RNAi) and then exposed to E. faecalis or S. aureus in liquid-based assays in the presence or absence of LK56 at 32 µM. (D) Young adult glp-4(bn2) worms reared on vector, nhr-49(RNAi), or nhr-45(RNAi) were incubated with P. aeruginosa PA14 in the liquid killing assay with or without LK56 at 32 µM. Each replicate included at least six wells, with approximately 20 worms per well. The data shown are mean values from a representative replicate. *, P < 0.05; **, P < 0.01; ***, P < 0.001. P values were calculated using Student’s t test. Error bars represent the standard error of the mean. At least three biological replicates were performed.
MDT-15 partners with at least two different nuclear hormone receptors, NHR-45 and NHR-49, to regulate gene expression.

[3] = system: glp-4(bn2) worms exposed to P. aeruginosa isolate PA2-61; assay: Liquid killing assay with cystic fibrosis isolate; details: isolate PA2-61, serial 2-fold dilutions from 50 µM to 12.5 μM
Method: We also tested these strains against a P. aeruginosa isolate from a pediatric cystic fibrosis patient, P. aeruginosa PA2-61, that we previously characterized ([22]).
The minimum effective concentration was calculated from the lowest concentration that retained statistically significant rescue of glp-4(bn2) C. elegans, a temperature-sensitive sterile strain, from exposure to P. aeruginosa PA14. […] Compounds were added in serial 2-fold dilutions from 50 µM to 12.5 μM. *, P < 0.05; **, P < 0.01; ***, P < 0.001. P values were calculated using Student’s t test. At least six wells containing 20 worms each per condition per replicate were used for determination of liquid killing. EC values were calculated based on at least three biological replicates. Error bars represent the standard error of the mean.
Liquid killing of C. elegans was performed as previously described with some changes ([91]). In brief, an overnight culture of LB medium was inoculated with a single colony of Pseudomonas aeruginosa strain PA14. Then, 400 µl of culture was spread onto a 10-cm slow-kill agar plate ([91]) and grown for 24 h at 37°C, followed by 24 h at 25°C. Bacteria were scraped from the plate, resuspended in S Basal medium, and added to 384-well plates with small molecules dissolved in DMSO. Solution in wells contained a final concentration of 40% SK media, 59% S Basal medium, 1% DMSO, and small molecules. For all liquid-based killing assays, solvent control wells contained 1% DMSO. MgSO4 and CaCl2 (300 µM) and cholesterol (1.6 µg/ml) were added to aid in production of virulence factors. Worms were sorted into 384-well plates using a COPAS FlowSort (Union Biometrica, Holliston, MA), incubated at 25°C until the DMSO control was roughly 35 to 55% dead, washed four times using an EL406 microplate washer (BioTek, VT), and stained with 50 μl of Sytox Orange at 1 µM to fluorescently stain dead worms. Wells were imaged in bright-field and RFP channels using the BioTek Cytation5, followed by image analysis using the CellProfiler software package to calculate fraction of dead worms in each well. […]

Row | SMILES | E. faecalis EC [1] | Rescue in liquid killing after nhr-49(RNAi) ([2]; P. aeruginosa PA14, 32 µM) | Rescue in liquid killing after mdt-15(RNAi) [2] | Need of MDT-15 for rescue (mdt-15(RNAi)) ([1]; E. faecalis, 32 µM) | Dose dependence of rescue in liquid killing [3] | Rescue in liquid killing after RNAi of a panel of phosphatases, kinases, transcription factors and most upregulated genes [2]
1 | COC(=O)/C=C/C(=O)Nc1ccccc1 [LK32] | 8 µM and 8 ± 0.0 µM | – | – | – | – | –
2 | O=c1cc(CNc2ccc(Br)cc2)nc2sccn12 [LK56] | 10.7 µM and 10.7 ± 3.3 µM | abolished compound rescue | completely abolish LK56-dependent rescue | required | dose-dependent rescue | –
3 | CNC(=O)Oc1c(Br)cc2sc(=O)oc2c1Br [LK34] | 18.7 µM and 18.7 ± 8.7 µM | – | – | – | dose-dependent rescue | rescue was unchanged
4 | CN(C)/N=N/c1ccc(-c2cn(Cc3ccccc3)cn2)cc1 [LK38] | > 64 µM | – | no effect | – | dose-dependent rescue | rescue was unchanged
5 | CCN(CC)/N=N/c1ccc(C(=O)O)cc1 [LK35] | > 64 µM | – | no effect | – | – | rescue was unchanged
